Reference: article PMC11304238, “Formulate Adaptive Biphasic Scaffold via Sequential Protein‐Instructed Peptide Co‐Assembly” (Advanced Science, 2024)
Where a SMILES comes first, the peptide text is derived from it. [ ]: non-standard residue; d: D form. The star is where a group is joined. Acetyl(2-naphthyl) = O=C(Cc1ccc2ccccc2c1)*; pY = N[C@@H](Cc1ccc(OP(=O)(O)O)cc1)C(=O)O

Legend:
hMSCs [1] = test: hMSC biocompatibility (viability, caspase 3/7, Ki67); type: cell-based, human; details: 3-day treatment at various concentrations (25 to 500 µM), basal medium, WST-1 viability, caspase 3/7 and Ki67 at 200 µM, n = 3
Experimental: (§1) Cells were seeded onto a 96‐well flat‐bottom tissue culture plate (Corning, Falcon) at a density of 0.5 × 10^4 cells cm^−2 and incubated overnight to facilitate cell adhesion. The medium was then replaced with osteogenic medium containing various peptide compounds at concentrations ranging from 25 to 500 µM. As a control, cells were cultured in osteogenic medium supplemented with an equal volume of PBS. Subsequently, the cells were cultured for an additional 72 h, after which their viability was assessed using a WST‐1 assay kit (Roche Diagnostics, IN).
Figure S12. Chemical structure of peptide P6.
Figure S13. Chemical structure of peptide P7.
Figure S14. 3-day hMSCs viability upon the treatment of peptides P1, P2, P3, and control peptides P5, 1:1 mixture of P6/P7 at various concentrations in basal medium (mean ± SD, n = 3).
Figure S15. Bright field images and fluorescence images of hMSCs upon the treatment of peptides P1, P2, P3, and control peptides P5, 1:1 mixture of P6/P7 at 200 µM in basal medium for 3 days and stained with caspase 3/7 (green). […]
Figure S16. (a) Fluorescence images of hMSCs upon the treatment of peptides P1, P2, P3, and control peptides P5, 1:1 mixture of P6/P7 at 200 µM in basal medium for 3 days and co-stained with hochest (blue) and Ki67 (red). […] (b) Quantification of Ki67 positive ratio in hMSCs upon the treatments of panel a (mean ± SD, n = 3). […]

hMSCs [2] = type: cell-based, human; details: hMSCs pre-cultured 3 days with P3, P5 or P6/P7 (200 µM), then 3 days P4 at various concentrations, osteogenic medium, n = 3
Experimental: as §1
Figure S22. […]
(§2) Figure S23. Bright field images and fluorescence images of hMSCs upon the treatment of peptides P3, P5, and mixture of P6/P7 at a concentration of 200 µM for 3 days, followed with another 3-day treatment of P4 at a concentration of 200 µM in osteogenic medium. ‘Undifferentiated’ represents cell cultured in basal medium; ‘Ctrl’ represents cell cultured in osteogenic medium upon the treatment of 1xPBS buffer. […]
as §2, with “S24. (a) Fluorescence” for “S23. Bright field images and fluorescence”

| SMILES | biocompatibility with hMSCs (hMSCs [1]) | cytotoxicity of P4 on pre-cultured hMSCs (hMSCs [2]) |
| --- | --- | --- |
| CC[C@H](C)[C@H](NC(=O)[C@H](CC(C)C)NC(=O)[C@H](CC(C)C)NC(=O)[C@H](CCCCN)NC(=O)[C@@H](NC(=O)[C@H](Cc1ccccc1)NC(=O)[C@H](Cc1ccccc1)NC(=O)[C@H](Cc1ccccc1)NC(=O)[C@H](CCCNC(=N)N)NC(=O)[C@H](CO)NC(=O)[C@H](CCCNC(=N)N)NC(=O)[C@@H](N)CCCCN)[C@@H](C)CC)C(=O)O [P3, KRSRFFFIKLLI] (H-KRSRFFFIKLLI-OH) | good biocompatibility |  |
| O=C(O)CC[C@H](NC(=O)[C@H](Cc1ccc(OP(=O)(O)O)cc1)NC(=O)[C@H](Cc1ccccc1)NC(=O)[C@H](Cc1ccccc1)NC(=O)Cc1ccc2ccccc2c1)C(=O)O [P4, NapFFYpE] ({Acetyl(2-naphthyl)}-FF[pY]E-OH) |  | no cytotoxicity |
| O=C(Cc1ccc2ccccc2c1)N[C@@H](Cc1ccccc1)C(=O)N[C@@H](Cc1ccccc1)C(=O)O [P5, NapFF] | good biocompatibility |  |
